Patent US7227043B2, “2-phenyl-2-substituted-1,3-diketones” (Bayer CropScience Ag, priority 2002, dated 2007)

Tests used:
Assay type in all cases: in vivo
[1] = system: larvae of the mustard beetle (Phaedon cochleariae); assay: Phaedon larvae test; conditions: 500 ppm, cabbage leaves dipped
Protocol: (§1) Phaedon larvae Test • Solvent: 7 parts by weight of dimethylformamide • Emulsifier: 2 parts by weight of alkylaryl polyglycol ether To produce a suitable preparation of active compound, 1 part by weight of active compound is mixed with the stated amounts of solvent and emulsifier, and the concentrate is diluted with emulsifier-containing water to the desired concentration. Cabbage leaves (Brassica oleracea) are treated by being dipped into the preparation of active compound of the desired concentration and are populated with larvae of the mustard beetle (Phaedon cochleariae) while the leaves are still moist. After the desired period of time, the kill in % is determined. 100% means that all beetle larvae have been killed; 0% means that none of the beetle larvae have been killed.

[2] = system: caterpillars of the armyworm (Spodoptera frugiperda); assay: Spodoptera frugiperda test; conditions: 500 ppm, cabbage leaves dipped
Protocol: as §1, with “Spodoptera frugiperda” for “Phaedon larvae”, “caterpillars” for “larvae”, “armyworm (Spodoptera frugiperda)” for “mustard beetle (Phaedon cochleariae)”, “caterpillars” for “beetle larvae”

Tetranychus urticae = assay: Tetranychus test (OP-resistant/dip treatment); conditions: 100 ppm, bean plants dipped, OP-resistant
Protocol: Tetranychus Test (OP-Resistant/Dip Treatment)
• Solvent: 7 parts by weight of dimethylformamide • Emulsifier: 2 parts by weight of alkylaryl polyglycol ether
To produce a suitable preparation of active compound, 1 part by weight of active compound is mixed with the stated amounts of solvent and emulsifier, and the concentrate is diluted with emulsifier-containing water to the desired concentration.
Bean plants (Phaseolus vulgaris) which are heavily infested by all stages of the greenhouse […] spider mite (Tetranychus urticae) are dipped into a preparation of active compound of the desired concentration.
After the desired period of time, the effect in % is determined. 100% means that all spider mites have been killed; 0% means that none of the spider mites have been killed.

Sugar beet = assay: Pre-emergence test, sugar beet; conditions: 250 g of ai/ha, after three weeks, 100% = total destruction
Protocol: (§2) • Solvent: 5 parts by weight of acetone • Emulsifier: 1 part by weight of alkylaryl polyglycol ether
(§3) To produce a suitable preparation of active compound, 1 part by weight of active compound is mixed with the stated amount of solvent, the stated amount of emulsifier is added and the concentrate is diluted with water to the desired concentration.
(§4) Seeds of the test plants are sown in normal soil. After about 24 hours, the soil is sprayed with the preparation of active compounds such that the particular amounts of active compound desired are applied per unit area. The concentration of the spray liquor is chosen such that the particular amounts of active compound desired are applied in 1000 l of water/ha.
(§5) After three weeks, the degree of damage to the plants is rated in % damage in comparison to the development of the untreated control.
(§6) The figures denote: • 0%=no effect (like untreated control) • 100%=total destruction

Alopecurus = assay: Pre-emergence test, Alopecurus; conditions: 250 g of ai/ha, after three weeks, 100% = total destruction
Protocol: as §2, §3, §4, §5, §6

Echinochloa = assay: Pre-emergence test, Echinochloa; conditions: 250 g of ai/ha, after three weeks, 100% = total destruction
Protocol: as §2, §3, §4, §5, §6

Setaria = assay: Pre-emergence test, Setaria; conditions: 250 g of ai/ha, after three weeks, 100% = total destruction
Protocol: as §2, §3, §4, §5, §6

Phytophthora infestans = conditions: 750 g/ha; protective; tomato; 7 days after inoculation
Meloidogyne incognita = assay: Meloidogyne test; conditions: 20 ppm, lettuce in sand, 100% = no galls
Protocol: Meloidogyne Test • Solvent: 7 parts by weight of dimethylformamide • Emulsifier: 2 parts by weight of alkylaryl polyglycol ether To produce a suitable preparation of active compound, 1 part by weight of active compound is mixed with the stated amounts of solvent and emulsifier, and the concentrate is diluted with water to the desired concentration. Containers are filled with sand, solution of active compound, Meloidogyne incognita egg/larvae suspension and lettuce seeds. The lettuce seeds germinate and the plants develop. On the roots, galls are formed. After the desired period of time, the nematicidal action is determined in % by the gall formation. 100% means that no galls have been formed; 0% means that the number of galls on the treated plants corresponds to that of the untreated control.

Sphaerotheca fuliginea = assay: Sphaerotheca test (cucumber)/protective; conditions: 100 g/ha, protective, 7 days after inoculation
Protocol: Sphaerotheca Test (Cucumber)/Protective […] To produce a suitable preparation of active compound, 1 part by weight of active compound is mixed with the stated amounts of solvent and emulsifier, and the concentrate is diluted with water to the desired concentration. To test for protective activity, young plants are sprayed with the preparation of active compound at the stated application rate. After the spray coating has dried on, the plants are inoculated with an aqueous spore suspension of Sphaerotheca fuliginea The plants are then placed in a greenhouse at about 23° C. and a relative atmospheric humidity of about 70%.

Venturia inaequalis = assay: Venturia test (apple)/protective; conditions: protective, 10 days after inoculation; for % efficacy: 100 g/ha
Protocol: (§7) Venturia Test (Apple)/Protective […] To produce a suitable preparation of active compound, 1 part by weight of active compound is mixed with the stated amounts of solvent and emulsifier, and the concentrate is diluted with water to the desired concentration. To test for protective activity, young plants are sprayed with the preparation of active compound at the stated application rate. After the spray coating has dried on, the plants are inoculated with an aqueous conidia suspension of the apple scab pathogen Venturia inaequalis and then remain in an incubation cabin at about 20° C. and 100% relative atmospheric humidity for 1 day.

[3] = system: peach aphid (Myzus persicae); assay: Myzus test; conditions: 500 ppm, cabbage leaves dipped
Protocol: as §1, with “Myzus” for “Phaedon larvae”, “oleracea) which are heavily infested by the peach aphid (Myzus persicae)” for “oleracea)”, “concentration.” for “concentration and are populated with larvae of the mustard beetle (Phaedon cochleariae) while the leaves are still moist.”, “aphids” for “beetle larvae”

Plasmopara viticola = assay: Plasmopara test (grapevine)/protective; conditions: 144 h, protective, 6 days after inoculation, read-out: % efficacy
Protocol: as §7, with “Plasmopara” for “Venturia”, “(Grapevine)/Protective” for “(Apple)/Protective”, “spore” for “conidia”, “Plasmopara viticola” for “the apple scab pathogen Venturia inaequalis”, “day. […] The plants are then moistened and placed in an incubation cabin for 1 day.” for “day.”

Botrytis cinerea = assay: Botrytis test (bean)/protective; conditions: 48 h, protective, 2 days after inoculation, read-out: % efficacy
Protocol: Botrytis Test (Bean)/Protective
• Solvents: 24.5 parts by weight of acetone • 24.5 parts by weight of dimethylacetamide • Emulsifier: 1.0 part by weight of alkylaryl polyglycol ether
To produce a suitable preparation of active compound, 1 part by weight of active compound is mixed with the stated amounts of solvent and emulsifier, and the concentrate is diluted with water to the desired concentration.
To test for protective activity, young plants are sprayed with the preparation of active compound at the stated application rate. After the spray coating has dried on, 2 small pieces of agar colonized by Botrytis cinerea are placed on each leaf. The inoculated plants are placed in a dark chamber at about 20° C. and 100% relative atmospheric humidity.
2 days after the inoculation, the size of the infected areas on the leaves is evaluated. 0% means an efficacy which corresponds to that of the control, whereas an efficacy of 100% means that no infection is observed.

Row | Structure (SMILES) | Kill rate in % after 7d [1] | Kill rate in % after 7d [2] | Kill rate in % after 7d (Tetranychus urticae) | % damage, Sugar beet (Sugar beet) | % damage, Alopecurus (Alopecurus) | % damage, Echinochloa (Echinochloa) | % damage, Setaria (Setaria) | Efficacy in % (Phytophthora infestans) | also measured
1 | Cc1ccc(-c2ccc(Cl)cc2)cc1C1(Cl)C(=O)CC2(CCCC2)CC1=O [Ex. I-2-2] | 100% | 100% | 98% | 0% | 90% | 95% | 90% | – | –
2 | O=C1CC2(CCCC2)CC(=O)C1(Cl)c1cc(Br)ccc1Cl [Ex. I-2-4] | – | – | 80% | – | – | – | – | – | –
3 | Cc1ccc(-c2ccc(Cl)cc2)cc1C1(Cl)C(=O)CC2(CCCCCC2)C1=O (stereo not drawn) [Ex. I-1-4] | – | – | – | – | – | – | – | 90% | –
4 | CC1(C)CC(=O)C(Cl)(c2cc(-c3ccc(Cl)cc3)ccc2Cl)C(=O)C1 [Ex. I-2-1] | 100% | 100% | 100% | 0% | 70% | 90% | 80% | 89% | Effect in % after 14d (nematicidal action by gall formation) (Meloidogyne incognita): 90%; % efficacy (Sphaerotheca fuliginea): 97%; % efficacy (Venturia inaequalis): 73%
5 | CC(C)C1CC(=O)C(Cl)(c2cc(Br)ccc2Cl)C(=O)C1 (stereo not drawn) [Ex. I-2-6] | – | – | – | – | – | – | – | – | Effect in % after 14d (nematicidal action by gall formation) (Meloidogyne incognita): 80%
6 | Cc1ccc(-c2ccc(Cl)cc2)cc1C1(Cl)C(=O)CC2(CCCCC2)C1=O (stereo not drawn) [Ex. I-1-1] | 100% | – | 100% | 0% | – | 100% | 90% | – | Kill rate in % after 6d [3]: 80%; Emax at 100 g/ha (Plasmopara viticola): 100%; Emax at 100 g/ha (Venturia inaequalis; Venturia inaequalis, 240 h, read-out: % efficacy): 100%; Emax at 100 g/ha (Botrytis cinerea): 96%
7 | O=C1CC2(CCCC2)CC(=O)C1(Cl)c1cc(-c2ccc(Cl)cc2)ccc1Cl [Ex. I-2-5] | 100% | 100% | 98% | – | – | – | – | – | –
8 | Cc1ccc(-c2ccc(Cl)cc2)cc1C1(Cl)C(=O)CC(C)(C)CC1=O [Ex. I-2-3] | 100% | 100% | 100% | 0% | 80% | 80% | 90% | – | % efficacy (Venturia inaequalis): 86%
9 | Cc1ccc(-c2ccc(Cl)cc2)cc1C1(Cl)C(=O)CC2(CCCC2)C1=O (stereo not drawn) [Ex. I-1-3] | – | – | – | – | – | – | – | 80% | –
